Results from patent US8604029B2, “2-[(2-substituted)-indolizin-3-yl]-2-oxo-acetamide derivatives as antifungal agents” (F2G Ltd British Body Corporate, priority 2006, dated 2013).
Values after ≈ are worked out from the molar mass of the structure shown.

Legend:
Format in all cases: cell-based
Aspergillus fumigatus = assay: MIC measurement, YAG medium; conditions: Aspergillus fumigatus; YAG medium; MIC banded into grades; strain AF293; read-out: MIC A. fumigatus
Outline: (§1)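 Spores from 5-day Sabouraud agar cultures were diluted in YAG medium (1% glucose, 1% ammonium chloride, 0.5% yeast extract) to a final inoculum of 1-2×10^4 cfu/mL, with drug at 50-0.05 mg/L. Plates were incubated 24 h at 35° C and read as OD 485 nm. MIC is the lowest concentration giving >70% inhibition versus drug-free control, in mg/L.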

[1] = system: Aspergillus fumigatus AF210; assay: MIC measurement, YAG medium; conditions: Aspergillus fumigatus, MIC banded into grades, strain AF210, read-out: MIC A. fumigatus 210
Outline: as §1

Aspergillus flavus = assay: MIC measurement, YAG medium; conditions: Aspergillus flavus, MIC banded into grades, lowest concentration inhibiting growth by >70%
Outline: as §1

Aspergillus terreus AT49 = assay: MIC measurement, YAG medium; conditions: Aspergillus terreus, MIC banded into grades, strain AT49, read-out: MIC A. terreus 49
Outline: as §1

Aspergillus terreus = assay: MIC measurement, YAG medium; conditions: Aspergillus terreus, MIC banded into grades, strain not named in head (AT4)
Outline: as §1

Aspergillus niger = assay: MIC measurement, YAG medium; conditions: Aspergillus niger, MIC banded into grades
Outline: as §1

Fusarium solani = assay: 24 hr MIC measurement, RPMI medium; conditions: Fusarium solani FS2, MIC banded into grades
Method: Between 1 and 5 mgs of compound were accurately weighed out into a sterile Eppendorf tube. The compound was dissolved in DMSO to give a solution containing […]. Tubes were stored at −20° C. until required.
On the day of testing thawed solutions were vortex mixed to ensure homogeneity. 30 μL of solution was removed and added to 570 μL of sterile water in a separate sterile Eppendorf. The thoroughly mixed solution was used to prepare a series of doubling dilutions in water, in a deep well plate. Thirteen replicate plates were prepared using a Minitrak by aspirating 20 μL from each well into eleven clear polystyrene 96 well plates.
Spores of Aspergillus spp. […]
This produced MIC plates with a drug range 50-0.05 mg/L and organism inocula of 1-2×10^4 cfu/mL for Aspergillus spp. and other filamentous fungi and 1-2×10^3 cfu/mL for yeasts. […] Growth was assessed by monitoring the optical density at 485 nm for each well. […] MICs are recorded as mg/L. Other growth media can be used for susceptibility testing, and the activity of the described compounds can also be assessed in a medium comprising 1% glucose, 1% ammonium chloride and 0.5% yeast extract (YAG medium). […] Growth was assessed by monitoring the optical density at 485 nm for each well. […]

SMILES: C=C1CCN(c2ccc(NC(=O)C(=O)c3c(-c4ccccc4)cc4ccccn34)cc2)CC1 [Example 3, N-[4-(4-methylene-piperidin-1-yl)-phenyl]-2-oxo-2-(2-phenyl-indolizin-3yl) acetamide]
- MIC (Aspergillus fumigatus): < 1 µg/mL
- MIC [1]: < 1 µg/mL
- MIC (Aspergillus flavus): < 1 µg/mL
- MIC (Aspergillus terreus AT49): < 1 µg/mL
- MIC (Aspergillus terreus): < 1 µg/mL
- MIC (Aspergillus niger): < 1 µg/mL
- MIC (Fusarium solani): < 1 µg/mL

SMILES: C[C@@H]1CN(C2CCN(c3ccc(NC(=O)C(=O)c4c(-c5ccccc5)cc5ccccn45)cc3)CC2)C[C@H](C)O1 [Example 24, N-{4-[4-(2,6-Dimethyl-morpholin-4-yl)-piperidin-1-yl]-phenyl}-2-oxo-2-(2-phenyl-indolizin-3-yl)-acetamide]
- MIC (Aspergillus fumigatus): < 1 µg/mL
- MIC [1]: < 1 µg/mL
- MIC (Aspergillus flavus): < 1 µg/mL
- MIC (Aspergillus terreus AT49): < 1 µg/mL
- MIC (Aspergillus terreus): < 1 µg/mL
- MIC (Aspergillus niger): < 1 µg/mL
- MIC (Fusarium solani): 1 to 10 µg/mL (≈ 1.86 to 18.6 µM)
